We go through two substances from US10166289B2, “Compositions including beta-glucans and method of use” (BIOTHERA, INC., priority 2011, dated 2019).

Data set [1] concerns human neutrophils, monocytes, B-cells, and monocyte-derived dendritic cells. The data set can be described thus: Binding of soluble β-glucan to immune cells, flow cytometry with glucan specific Ab BFD IV. It counts as cell-based. Particulars: for binding to immune cells: human neutrophils, monocytes, monocyte-derived dendritic cells. The protocol:
Monocyte-derived dendritic cells (MoDCs) were prepared from blood obtained from healthy volunteers as described in Peters et al. (Advances in Experimental Medicine and Biology; 329:275-280; 1993). At day 7, the MoDCs were resuspended in RPMI 1640 supplemented with 10% human serum (Sigma-Aldrich, St. Louis, Mo.). PBMCs were obtained from healthy volunteers and similarly resuspended in RPMI 1640 supplemented with 10% human serum. The MoDCs and PBMCs were treated with vehicle alone or with IMPRIME (Biothera, Eagan, Minn.) at 100 μg/mL, 200 μg/mL, or 400 μg/mL for two hours. Binding of IMPRIME was assessed by flow cytometric analysis with a glucan specific Ab BFD IV (U.S. Pat. No. 6,084,092).
(In general: In flow cytometry, cells or beads pass a laser one at a time.)

Data set [2] deals with B cells (CD19+) in PBMCs. The data set can be described thus: Modulation of TLR 9 agonist CpG 2006-induced B cell proliferation (CFSE dilution, FACS). It counts as cell-based. Particulars: 100 nM CpG 2006 with 50 μg/mL IMPRIME PGG, five days, 10% human serum. Here is the method:
(§1) TLR activation of B cells induces cellular proliferation that can be measured by a reduction in the staining intensity of the intracellular dye, carboxyfluorescein succinimidyl ester (CFSE, Invitrogen, Life Technologies Corp., Carlsbad, Calif.). The principle behind this technique is that as a cell divides the CFSE dye is diluted in half between the daughter cells after each division.
PBMCs obtained from healthy volunteers were treated with 100 nM CpG 2006 (InvivoGen, San Diego, Calif.) in the presence or absence of 50 μg/mL IMPRIME PGG (Biothera, Eagan, Minn.) and cultured over five days in media containing 10% fresh human serum (Sigma-Aldrich, St. Louis, Mo.). The cells were stained with an anti-CD19 antibody (BioLegend, Inc., San Diego, Calif.) to identify the B cell subset in the PBMC mixture and intensity of CFSE staining was measured my FACS analysis (BD Biosciences, San Jose, Calif.).

Data set [3] deals with monocytes (CD14+) in PBMCs. The experiment in a line: Modulation of TLR 4 agonist LPS-induced co-stimulatory marker CD40 expression by monocytes (FACS). It counts as cell-based, human. Here is the method:
PBMCs obtained from healthy volunteers were treated with 25 ng/mL LPS (InvivoGen, San Diego, Calif.) either concurrently with noted doses of IMPRIME PGG (Biothera, Eagan, Minn.) or after cells were pretreated overnight with IMPRIME PGG. The cells were cultured over five days in media containing 10% fresh human serum and then stained with an anti-CD14 antibody (BioLegend, Inc., San Diego, Calif.) to identify the monocyte subset in the PBMC mixture and an anti-CD40 antibody (BioLegend, Inc., San Diego, Calif.) to evaluate CD40 expression by FACS analysis (BD Biosciences, San Jose, Calif.).

The test system of data set [4] is systemic pro-inflammatory cytokines. The data set can be described thus: Induction of systemic pro-inflammatory cytokines.
For data set [5], the system named is B cells (CD19+) in PBMCs. The experiment in a line: Modulation of TLR 7/8 agonist CL097-induced B cell proliferation (CFSE dilution, FACS). The settings on record: 2 μM CL097 with 50 μg/mL IMPRIME PGG, five days, 10% human serum. Format: cell-based. Here is the method:
as §1
PBMCs obtained from healthy volunteers were treated with 2 μM CL097 (InvivoGen, San Diego, Calif.) in the presence or absence of 50 μg/mL IMPRIME PGG (Biothera, Eagan, Minn.) and cultured over five days in media containing 10% fresh human serum (Sigma-Aldrich, St. Louis, Mo.). The cells were stained with an anti-CD19 antibody (BioLegend, Inc., San Diego, Calif.) to identify the B cell subset in the PBMC mixture and intensity of CFSE staining was measured my FACS analysis (BD Biosciences, San Jose, Calif.).

For laminarin [reference compound], in data set [1], the “binding to immune cells” value is recorded as “can bind”.

Turning to “β(1,6)-[poly-1,3)-D-glucopyranosyl]-poly-β(1,3)-D-glucopyranose [IMPRIME PGG]”, the “B cell proliferation compared to PBMCs treated with only the TLR agonist” value in the data set on B cells (CD19+) in PBMCs [2] and in the data set on B cells (CD19+) in PBMCs [5] was “increases B cell proliferation” each time. Besides, in data set [3] (PBMCs pre-incubated overnight with IMPRIME PGG before 25 ng/mL LPS), the “CD40 expression effect with pre-incubation” value is listed as “magnified”. In data set [3] (PBMCs, 25 ng/mL LPS concurrently with IMPRIME PGG, five days), the “CD40 expression compared to treating the PBMCs with only the TLR agonist” value was “an increase in CD40 expression”. The “induction of systemic pro-inflammatory cytokines” value in data set [4] is listed as “do not appear to induce systemic pro-inflammatory cytokines”. Besides, the “binding to immune cells” value in data set [1] was “can bind”. Besides, the “receptors through which immune cell subsets are bound” value in data set [1] (neutrophils and monocytes) is “through complement binding receptors (CR2 on B-cells; CR3 on neutrophils and monocytes), not a TLR”.
